“And” between values parts separate entries of the source, which are not always exact repeats. Equal entries are not always repeated. Where two headings read alike, the source gives them in different places.
Columns and labels:
[1] = set-up: method as in PMID 24795799; details: cited from earlier work
H. pylori SS1 = experiment: MIC by agar dilution method; format: cell-based; details: Helicobacter pylori
Method: (§1) A total of four H. pylori strains were studied, including three reference strains ATCC 43504, NCTC 26695 and SS1 gifted from Professor Richard Ferrero, Monash University, Australia, and one clinical isolate ICDC 111001 obtained from Professor Zhang Jianzhong, Chinese Center of Disease Control and Prevention. […] The MICs of Pal against the four H. pylori strains were evaluated by using agar dilution method. […] H. pylori strains were harvested and resuspended in PBS (1.0–2.0 McFarland were defined based on the strain properties). […] After 72 h, the MIC values were determined as the lowest concentration at which there was no strain growth judged by visual examination. Metronidazole was used as the positive control. The experiments were evaluated under two different pH (7.4 and 5.3) conditions and repeated twice.

[2] = system: H. pylori ICDC 111001 (clinical isolate); experiment: MIC by agar dilution method; format: cell-based; details: Helicobacter pylori
Method: as §1

H. pylori ATCC 43504 = experiment: MIC by agar dilution method; format: cell-based; details: Helicobacter pylori
Method: as §1

H. pylori NCTC 26695 = experiment: MIC by agar dilution method; format: cell-based; details: Helicobacter pylori
Method: as §1

H. pylori urease (HPU) [3] = target: T1, H. pylori urease (HPU) (Helicobacter pylori, UniProt P69996); experiment: biochemical; format: biochemical; details: read-out: Residual urease activity (percent of control), Fig 5A HPU, thiols 1.25 mM, Pal 0.5 mM, 20+20 min
T1 construct: HPU was prepared as previously described; made in house
Method: (§2) The reaction mixture consisted of 0.25 mg/mL HPU or JBU, 0.5 mM Pal (for both HPU and JBU), and 1.25 mM thiols (DTT, GSH, or L-cys) in 20 mM HEPES buffer (pH 7.5). The components of the incubation mixture were mixed according to three procedures: (1) Urease was added to the mixture after a 20-min co-incubation of Pal with thiol. (2) Pal was added to the mixture after a 20-min co-incubation of urease with thiol. (3) Thiols were added to the mixture after a 20-min co-incubation of urease with Pal. The incubation mixture containing all components was incubated for further 20 min and the activity of urease was determined. The experiments were triply performed.

jack bean urease (JBU) [4] = target: T2, jack bean urease (JBU) (Canavalia ensiformis, UniProt P07374); experiment: biochemical; format: biochemical; details: read-out: Residual urease activity (percent of control), Fig 5B JBU, thiols 1.25 mM, Pal 0.5 mM, 20+20 min
T2 construct: Urease from jack bean (Canavalia ensiformis, JBU); purchased Sigma-Aldrich (St Louis, MO, USA) type III (catalogue number not given)
Method: as §2

H. pylori urease (HPU) [5] = target: T1, H. pylori urease (HPU); experiment: Urease inhibition test (modified Berthelot method); format: biochemical
Method: HPU was prepared as previously described. The standard urease assay mixture included 150 mM urea in 20 mM HEPES buffer (pH 7.5). After addition of small aliquots of enzyme-containing solution of urease, the assay ran for 20 min. The enzymatic activity was evaluated spectrophotometrically by detecting the ammonia concentration at 595 nm according to the modified Berthelot (phenol-hypochlorite) method. Urease activity was estimated with JBU as a standard, the specific activity of HPU was determined to be 17.0 U/mg. One unit of urease activity was defined as 1 μmol of ammonia released per min at 25°C. The amount of protein was determined by commercial Bradford Protein Assay Kit with BSA as a standard. The amount of ammonia released was decided from a standard curve. The activity of uninhibited urease was defined as the control activity of 100%.
Reaction mixtures comprising 0.25 mg/mL HPU or JBU and different concentrations of Pal or AHA at the volume ratio of 1:1, were incubated at 37°C in 20 mM HEPES buffer (pH 7.5) in the absence of urea. The reactions were initiated by mixing the urease and the inhibitor. The preincubation mixture was withdrawn at 20 min and immediately transferred into the standard assay mixtures for urease residual activity determination. Inhibition rate (%) was calculated following the formula: I % = (1-activity with inhibitors/activity without inhibitors) × 100%. The IC50 was expressed as the concentration of inhibitor that decreased urease activity by 50% and calculated by plotting the percent of inhibition. The experiments were triply performed.

jack bean urease (JBU) [6] = target: T2, jack bean urease (JBU); experiment: Inhibition kinetic study (Lineweaver-Burk plots); format: biochemical; details: for Lineweaver-Burk plot raw value (reciprocal velocity): Fig 3B JBU
Method: Michaelis constant KM and the maximum velocity vmax values were evaluated by means of Lineweaver—Burk plots, using the initial velocities at different urea concentrations (ranging from 0.3125 to 15 mM), in the absence or presence of 1.00, 0.50, and 0.25 mM Pal. The concentrations of HPU and JBU were both 0.25 mg/mL in the assays. The values were obtained by applying nonlinear regression to the Michaelis-Menten equation. All experiments were performed in triplicate.

T2 sequence (P07374 whole entry, looked up): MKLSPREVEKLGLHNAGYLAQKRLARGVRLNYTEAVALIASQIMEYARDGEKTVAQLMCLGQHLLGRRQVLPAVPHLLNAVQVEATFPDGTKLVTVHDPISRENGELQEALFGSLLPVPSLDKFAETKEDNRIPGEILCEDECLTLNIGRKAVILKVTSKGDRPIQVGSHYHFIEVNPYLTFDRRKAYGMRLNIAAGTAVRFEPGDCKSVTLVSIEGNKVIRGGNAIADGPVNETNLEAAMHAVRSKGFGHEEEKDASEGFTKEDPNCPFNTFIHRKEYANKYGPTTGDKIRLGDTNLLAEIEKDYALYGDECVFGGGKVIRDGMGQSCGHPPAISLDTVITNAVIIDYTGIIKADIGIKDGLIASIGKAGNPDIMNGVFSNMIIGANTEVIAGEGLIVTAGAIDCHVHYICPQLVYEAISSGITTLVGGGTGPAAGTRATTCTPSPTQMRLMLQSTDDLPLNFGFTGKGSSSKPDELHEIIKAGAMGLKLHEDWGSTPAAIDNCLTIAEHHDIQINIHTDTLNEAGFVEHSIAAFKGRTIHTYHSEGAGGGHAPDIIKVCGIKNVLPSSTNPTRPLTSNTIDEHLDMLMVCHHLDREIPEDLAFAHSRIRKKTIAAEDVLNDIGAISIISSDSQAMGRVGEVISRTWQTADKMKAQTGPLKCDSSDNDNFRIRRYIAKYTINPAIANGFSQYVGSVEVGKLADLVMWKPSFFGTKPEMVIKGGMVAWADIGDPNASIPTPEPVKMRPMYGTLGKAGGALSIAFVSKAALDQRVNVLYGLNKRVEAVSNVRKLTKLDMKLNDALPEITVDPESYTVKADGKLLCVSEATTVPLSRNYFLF
T1 sequence (P14916 whole entry): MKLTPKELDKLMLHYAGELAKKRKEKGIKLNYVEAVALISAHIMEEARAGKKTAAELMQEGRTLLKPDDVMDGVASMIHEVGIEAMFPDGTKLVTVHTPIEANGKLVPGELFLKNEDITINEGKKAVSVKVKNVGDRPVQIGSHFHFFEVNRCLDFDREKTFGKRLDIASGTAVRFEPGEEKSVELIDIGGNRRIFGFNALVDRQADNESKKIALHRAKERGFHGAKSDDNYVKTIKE
T1 sequence (P69996 whole entry): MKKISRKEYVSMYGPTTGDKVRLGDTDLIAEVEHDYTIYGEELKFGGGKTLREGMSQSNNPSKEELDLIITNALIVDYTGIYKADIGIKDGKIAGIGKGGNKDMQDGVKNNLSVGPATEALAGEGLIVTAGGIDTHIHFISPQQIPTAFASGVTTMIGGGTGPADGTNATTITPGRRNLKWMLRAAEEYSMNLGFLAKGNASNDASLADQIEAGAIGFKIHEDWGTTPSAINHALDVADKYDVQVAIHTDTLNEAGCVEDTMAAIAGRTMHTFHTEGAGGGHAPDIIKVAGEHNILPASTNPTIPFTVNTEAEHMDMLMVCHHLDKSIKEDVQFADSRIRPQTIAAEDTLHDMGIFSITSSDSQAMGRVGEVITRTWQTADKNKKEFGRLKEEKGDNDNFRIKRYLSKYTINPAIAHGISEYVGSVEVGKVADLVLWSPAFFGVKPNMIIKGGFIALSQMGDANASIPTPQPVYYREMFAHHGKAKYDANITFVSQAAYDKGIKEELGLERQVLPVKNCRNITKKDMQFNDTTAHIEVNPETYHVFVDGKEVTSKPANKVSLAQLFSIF

In the case of COc1cc2c(cc1OC)-c1cc3ccc(OC)c(OC)c3c[n+]1CC2 [Pal, Palmatine], the anti-ulcerogenic activity [1] is given as “better than that of the C. chinensis extract and its active principle berberine”, the MIC (H. pylori SS1; pH 5.3, 72 h) is given as 75 µg/mL and the MIC (H. pylori SS1; pH 7.4, 72 h) is given as 100 µg/mL. For the same compound, the MIC ([2]; pH 5.3, 72 h) was 75 µg/mL, the MIC ([2]; pH 7.4, 72 h) was 100 µg/mL and the MIC (H. pylori ATCC 43504; ATCC43504, pH 5.3, 72 h) was 75 µg/mL. It also gave an MIC (H. pylori ATCC 43504; ATCC43504, pH 7.4, 72 h) of 100 µg/mL, an MIC (H. pylori NCTC 26695; NCTC26695, pH 5.3, 72 h) of 100 µg/mL and an MIC (H. pylori NCTC 26695; NCTC26695, pH 7.4, 72 h) of 200 µg/mL. The remaining activity at 500 µM (H. pylori urease (HPU) [3]; order (Protector+Pal)+urease) was 19.8%, the remaining activity at 500 µM (H. pylori urease (HPU) [3]; order (urease+Pal)+Protector) was 20% and the remaining activity at 500 µM (H. pylori urease (HPU) [3]; order (urease+Protector)+Pal) was 16.7%. The remaining activity at 500 µM (jack bean urease (JBU) [4]; order (Protector+Pal)+urease) was 43.3%, the remaining activity at 500 µM (jack bean urease (JBU) [4]; order (urease+Pal)+Protector) was 38% and the remaining activity at 500 µM (jack bean urease (JBU) [4]; order (urease+Protector)+Pal) was 35.4%. For the same compound, the IC50 (H. pylori urease (HPU) [5]) was 530 ± 10 µM, the Residual activity (H. pylori urease (HPU) [5]; Fig 2A HPU, Pal 0.0149062 mM, replicates) was 97.2774% and 99.8185% and the Residual activity (H. pylori urease (HPU) [5]; Fig 2A HPU, Pal 0.0298125 mM, replicates) was 98.3238% and 98.6586%. For the same compound, the Residual activity (H. pylori urease (HPU) [5]; Fig 2A HPU, Pal 0.059625 mM, replicates) was 95.8144% and 91.8003%, the Residual activity (H. pylori urease (HPU) [5]; Fig 2A HPU, Pal 0.11925 mM, replicates) was 84.6333% and 83.9334% and the Residual activity (H. pylori urease (HPU) [5]; Fig 2A HPU, Pal 0.2385 mM, replicates) was 71.2237% and 68.6838%. The Residual activity (H. pylori urease (HPU) [5]; Fig 2A HPU, Pal 0.477 mM, replicates) was 44.3368% and 41.1296%, the Residual activity (H. pylori urease (HPU) [5]; Fig 2A HPU, Pal 0.954 mM, replicates) was 18.2056% and 23.6712% and the Residual activity (H. pylori urease (HPU) [5]; Fig 2C HPU, head prints Pal 0.00755209 mM, replicates) was 104.061% and 86.9419%. The Residual activity (H. pylori urease (HPU) [5]; Fig 2C HPU, head prints Pal 0.0151042 mM, replicates) was 98.3628% and 84.9736%, the Residual activity (H. pylori urease (HPU) [5]; Fig 2C HPU, head prints Pal 0.0302084 mM, replicates) was 80.4878% and 87.2209% and 66.9067% and the Residual activity (H. pylori urease (HPU) [5]; Fig 2C HPU, head prints Pal 0.0604167 mM, replicates) was 64.023% and 48.6958%. The Residual activity (H. pylori urease (HPU) [5]; Fig 2C HPU, head prints Pal 0.120833 mM, replicates) was 34.9663% and 29.6848%, the Residual activity (H. pylori urease (HPU) [5]; Fig 2C HPU, head prints Pal 0.241667 mM, replicates) was 20.774% and 15.3785% and the remaining activity at 14.9062 µM (H. pylori urease (HPU) [5]; read-out: Residual activity, Fig 2A HPU, Pal 0.0149062 mM, replicates) was 98.5%. The remaining activity at 29.8125 µM (H. pylori urease (HPU) [5]; read-out: Residual activity, Fig 2A HPU, Pal 0.0298125 mM, replicates) was 92%, the remaining activity at 59.625 µM (H. pylori urease (HPU) [5]; read-out: Residual activity, Fig 2A HPU, Pal 0.059625 mM, replicates) was 88% and the remaining activity at 119.25 µM (H. pylori urease (HPU) [5]; read-out: Residual activity, Fig 2A HPU, Pal 0.11925 mM, replicates) was 77.1%. The remaining activity at 238.5 µM (H. pylori urease (HPU) [5]; read-out: Residual activity, Fig 2A HPU, Pal 0.2385 mM, replicates) was 66.8%, the remaining activity at 477 µM (H. pylori urease (HPU) [5]; read-out: Residual activity, Fig 2A HPU, Pal 0.477 mM, replicates) was 49.6% and the remaining activity at 954 µM (H. pylori urease (HPU) [5]; read-out: Residual activity, Fig 2A HPU, Pal 0.954 mM, replicates) was 24.2%. For the same compound, the remaining activity at 7.55209 µM (H. pylori urease (HPU) [5]; read-out: Residual activity, Fig 2C HPU, head prints Pal 0.00755209 mM, replicates) was 94.8%, the remaining activity at 15.1042 µM (H. pylori urease (HPU) [5]; read-out: Residual activity, Fig 2C HPU, head prints Pal 0.0151042 mM, replicates) was 92.1% and the remaining activity at 60.4167 µM (H. pylori urease (HPU) [5]; read-out: Residual activity, Fig 2C HPU, head prints Pal 0.0604167 mM, replicates) was 56.1%. The remaining activity at 120.833 µM (H. pylori urease (HPU) [5]; read-out: Residual activity, Fig 2C HPU, head prints Pal 0.120833 mM, replicates) was 31%, the remaining activity at 241.667 µM (H. pylori urease (HPU) [5]; read-out: Residual activity, Fig 2C HPU, head prints Pal 0.241667 mM, replicates) was 23.2% and the “Lineweaver-Burk plot raw value (reciprocal velocity)” value (shortened to “Lineweaver-Burk plot raw value”) (jack bean urease (JBU) [6]; Pal=0.25 mM, 1/urea 0.0333333) was 6.736 and 6.4288 and 6.3593. For the same compound, the “Lineweaver-Burk plot raw value” value (jack bean urease (JBU) [6]; Pal=0.25 mM, 1/urea 0.0666667) was 9.843 and 8.358 and 8.117, the “Lineweaver-Burk plot raw value” value (jack bean urease (JBU) [6]; Pal=0.25 mM, 1/urea 0.266667) was 12.8949 and 20.429 and 18.9394 and the “Lineweaver-Burk plot raw value” value (jack bean urease (JBU) [6]; Pal=0.25 mM, 1/urea 0.533333) was 27.5862 and 33.6135 and 34.6021. For the same compound, the “Lineweaver-Burk plot raw value” value (jack bean urease (JBU) [6]; Pal=0.25 mM, 1/urea 1.06667) was 85.4701 and 51.1509 and 56.8182, the “Lineweaver-Burk plot raw value” value (jack bean urease (JBU) [6]; Pal=0.50 mM, 1/urea 0.0333333) was 6.923 and 7.202 and 9.225 and the “Lineweaver-Burk plot raw value” value (jack bean urease (JBU) [6]; Pal=0.50 mM, 1/urea 0.0666667) was 8.807 and 9.298 and 11.1669. For the same compound, the “Lineweaver-Burk plot raw value” value (jack bean urease (JBU) [6]; Pal=0.50 mM, 1/urea 0.133333) was 18.6916 and 14.9813 and 17.4672, the “Lineweaver-Burk plot raw value” value (jack bean urease (JBU) [6]; Pal=0.50 mM, 1/urea 0.266667) was 37.037 and 24.1255 and 22.7273 and the “Lineweaver-Burk plot raw value” value (jack bean urease (JBU) [6]; Pal=0.50 mM, 1/urea 0.533333) was 57.971 and 34.3053 and 43.4783. The “Lineweaver-Burk plot raw value” value (jack bean urease (JBU) [6]; Pal=1.00 mM, 1/urea 0.0333333) was 7.877 and 9.307 and 11.4613, the “Lineweaver-Burk plot raw value” value (jack bean urease (JBU) [6]; Pal=1.00 mM, 1/urea 0.0666667) was 11.4679 and 16.2867 and 12.6662 and the “Lineweaver-Burk plot raw value” value (jack bean urease (JBU) [6]; Pal=1.00 mM, 1/urea 0.133333) was 16.1031 and 22.0507 and 21.7155. The “Lineweaver-Burk plot raw value” value (jack bean urease (JBU) [6]; Pal=1.00 mM, 1/urea 0.266667) was 25.0313 and 34.7222 and 40.9836, the “Lineweaver-Burk plot raw value” value (jack bean urease (JBU) [6]; Pal=1.00 mM, 1/urea 0.533333) was 40.4858 and 35.0263 and 56.6572 and the “type of urease inhibition” value (jack bean urease (JBU) [6]; JBU, Lineweaver-Burk) was “noncompetitive”.

Reference: publication PMC5207512, “Inhibition of Helicobacter pylori and Its Associated Urease by Palmatine: Investigation on the Potential Mechanism” (PLoS ONE, 2017)
